Measured values taken from the NIST ThermoML archive (doi:10.1021/je4006739).
Numbers after ± are expanded uncertainties.

Settings: Liquid; for mass density: 293.15 K, 101.33 kPa, Vibrating tube method; for Normal boiling temperature: Ebulliometric method (Recirculating still)

mass density [kg/m3] | Normal boiling temperature [°C] | SMILES
1092.48 ± 0.27 | 189.10 ± 1 | C[S+](C)[O-] [dimethyl sulfoxide]
928.92 ± 0.23 | 135.20 ± 1 | CCOCCO [2-ethoxyethan-1-ol]
863.64 ± 0.23 | 136.10 ± 1 | CCc1ccccc1 [ethylbenzene]
